These results are taken from ChEMBL document CHEMBL1123567, “2-Oxo-1,8-naphthyridine-3-carboxylic acid derivatives with potent gastric antisecretory properties” (1987).

Assay [1] deals with Rattus norvegicus. The assay can be described thus: Antisecretory activity at 32 mg/kg dose administered intraduodenally in the pylorus-ligated rat. Type of assay: functional. Particulars: route intraduodenal.
In assay [2] the test system is Canis familiaris. The assay can be described thus: Antisecretory activity (total acid output) at 2 mg/kg dose administered (po) in Gastric pouch dog was determined by dose related inhibition of food stimulated gastric acid secretion. Type of assay: functional, Canis lupus familiaris, Stomach. On the set-up: scale not given: the % may be the effect or the level left.

Assay [3] deals with Rattus norvegicus. The assay can be described thus: Antisecretory activity (total acid output) at 2 mg/kg dose administered intraduodenally in the pylorus-ligated rat. Particulars: route intraduodenal. Type of assay: functional.
Assay [4] deals with Rattus norvegicus. Description: Antisecretory activity (total acid output) at 8 mg/kg dose administered intraduodenally in the pylorus-ligated rat. Particulars: route intraduodenal. Type of assay: functional.
For assay [5], the system named is Rattus norvegicus. Description: Antisecretory activity (total acid output) at 16 mg/kg dose administered intraduodenally in the pylorus-ligated rat. Type of assay: functional. Particulars: route intraduodenal.
Assay [6] concerns Rattus norvegicus. Description: Antisecretory activity (total acid output) at 4 mg/kg dose administered intraduodenally in the pylorus-ligated rat. Type of assay: functional. Conditions: route intraduodenal.
Assay [7] has as its system Canis familiaris. The assay can be described thus: Antisecretory activity (total acid output) at 4 mg/kg dose administered (po) in Gastric pouch dog was determined by dose related inhibition of food stimulated gastric acid secretion. Type of assay: functional, Canis lupus familiaris, Stomach. The arrangement: scale not given: the % may be the effect or the level left.

For assay [8], the system named is Canis familiaris. Description: Antisecretory activity (total acid output) at 16 mg/kg dose administered (po) in Gastric pouch dog was determined by dose related inhibition of food stimulated gastric acid secretion. Type of assay: functional, Canis lupus familiaris, Stomach. The arrangement: scale not given: the % may be the effect or the level left.
For assay [9], the system named is Canis familiaris. Description: Antisecretory activity (total acid output) at 8 mg/kg dose administered (po) in Gastric pouch dog was determined by dose related inhibition of food stimulated gastric acid secretion. Type of assay: functional, Canis lupus familiaris, Stomach. The arrangement: scale not given: the % may be the effect or the level left.
The test system of assay [10] is Rattus norvegicus. The assay can be described thus: Antisecretory activity (total acid output) at 0.5 mg/kg dose administered intraduodenally in the pylorus-ligated rat. Type of assay: functional. Particulars: route intraduodenal.

The structures appear in SMILES notation.

In assay [1], `CCn1c(=O)c(C(=O)NN)c(N)c2cccnc21` had a Control of 29%.

Molecule `CCn1c(=O)c(C(N)=O)c(N)c2ccc(C)nc21` gave a Control in [1] of 55%.

`CCn1c(=O)c(C(=O)O)c(N)c2cc(NC(C)=O)cnc21` displayed a Control in assay [1] of 82%.

The molecule `CCCn1c(=O)c(C(=O)OCC)c(N)c2cccnc21` gave a Control in assay [1] of 30%.

As to `CCOC(=O)c1c(Cl)c2ccc(C)nc2n(CC)c1=O`, the Control in assay [1] was determined as 66%.

With `CCOC(=O)c1c(O)c2cccnc2n(CC)c1=O`, the Control in assay [1] is given as 63%.

Take `CCOC(=O)c1c(N2CCCC2)c2cccnc2n(C)c1=O`: in assay [1], the Control is listed as 51%.

In [1], `CCOC(=O)c1c(N)c2cccnc2n(CC(C)C)c1=O` registered a Control of 28%.

For `CCn1c(=O)c(C(=O)O)c(N)c2cccnc21`, the Control in [1] turned out to be 37%.

The molecule `CCn1c(=O)c(C(N)=O)c(N)c2cccnc21` gave a Control in [1] of 19%.

As to `CCOC(=O)c1c(N)c2cccnc2n(C2CCCCC2)c1=O`, in assay [1], the Control was 48%.

Regarding `CCOC(=O)c1c(N2CCNCC2)c2ccc(C)nc2n(CC)c1=O`, the Control in assay [1] is recorded as 10%.

`C=CCn1c(=O)c(C(=O)O)c(NC(=O)CCl)c2cccnc21` returned a Control in [1] of 63%.

As for `CCOC(=O)c1c(N2CCN(C)CC2)c2ccc(C)nc2n(CC)c1=O`, the Control in assay [1] came out at 7.5%; in assay [2], 95%; in [3], 85%; in assay [4], 45%; in assay [5], 28%; in assay [6], 66%. Also, the Control in assay [7] is recorded as 40%.

In the case of `CCOC(=O)c1c(O)nc2nc(C)ccc2c1N1CCN(C)CC1`, in assay [1], the Control is 34%.

`CCOC(=O)c1c(NCCCN(C)C)c2ccc(C)nc2n(CC)c1=O` returned a Control in assay [1] of 77%.

`CCNc1c(C(=O)OCC)c(=O)n(CC)c2nc(C)ccc12` displayed a Control in assay [1] of 36%.

In the case of `CCn1c(=O)c(C#N)c(N)c2ccc(C)nc21`, the Control in assay [1] is 62%.

In turn, `CCOC(=O)c1c(N)c2ccc(C)nc2n(CCO)c1=O` returned a Control in [1] of 74%.

As for `CCOC(=O)c1c(N(C(C)=O)C(C)=O)c2cccnc2n(CC)c1=O`, the Control in assay [1] was determined as 59%.

In turn, `CCN(CC)CCNC(=O)c1c(N)c2cccnc2n(CC)c1=O` gave a Control in [1] of 56%.

In assay [1], `CCOC(=O)c1c(N2CCCC2)c2ccc(C)nc2n(CC)c1=O` came in with a Control of 29%.

Consider `CCOC(=O)c1c(N(C)CCO)c2ccc(C)nc2n(CC)c1=O`, for which the Control in assay [1] turned out to be 59%.

`CCn1c(=O)c(C(=O)O)c(N2CCN(C)CC2)c2ccc(C)nc21` showed a Control in [1] of 89%.

As for `CCC(C)OC(=O)c1c(N)c2cccnc2n(CC)c1=O` (stereo unspecified), the Control in assay [1] was 42%.

For `CCN(CC)CCOC(=O)c1c(N)c2cccnc2n(CC)c1=O`, in assay [1], the Control is listed as 40%.

`CCOC(=O)c1c(NC(C)=O)c2cccnc2n(CC)c1=O` yielded a Control in [1] of 67%.

As for `CCOC(=O)c1c(N2CCN(C(=O)OCC)CC2)c2ccc(C)nc2n(CC)c1=O`, the Control in [1] is 70%.

`CCOC(=O)c1c(N2CCOCC2)c2ccc(C)nc2n(CC)c1=O`: the Control in assay [1] was determined as 22%.

Molecule `CCn1c(=O)c(C#N)c(N2CCCC2)c2ccc(C)nc21` returned a Control in assay [1] of 67%.

As to `CCOC(=O)c1c(O)c2ccc(C)nc2n(C)c1=O`, the Control in assay [1] was determined as 51%.

As for `CCOC(=O)c1c(N)c2cccnc2n(C)c1=O`, the Control in assay [1] amounted to 21%.

As to `CCOC(=O)c1c(O)nc2ncccc2c1N`, in [1], the Control came to 44%.

Turning to `C=CCn1c(=O)c(C(=O)OCC)c(N2CCCC2)c2ccc(C)nc21`, the Control in [1] turned out to be 59%.

In assay [1], `Nc1c(C(=O)O)c(O)nc2ncccc12` displayed a Control of 72%.

Molecule `CCOC(=O)c1c(N(C(C)=O)C(C)=O)c2c(C)cc(C)nc2n(CC)c1=O` showed a Control in assay [1] of 76%.

Regarding `CCOC(=O)c1c(N2CCN(C)CC2)c2cccnc2n(CC)c1=O`, the Control in assay [1] was 17%.

For `CCOC(=O)c1c(N)c2c(C)cc(C)nc2n(CC)c1=O`, the Control in [1] came to 50%.

Molecule `CCOC(=O)c1c(OCC)c2ccc(C)nc2n(CC)c1=O` returned a Control in assay [1] of 46%.

In [1], `CCOC(=O)c1c(O)nc2nc(C)cc(C)c2c1N` had a Control of 89%.

`C=CCn1c(=O)c(C(=O)OCC)c(N)c2cccnc21` yielded a Control in [1] of 22%.

`CCOC(=O)c1c(N2CCN(C)CC2)c2ccc(C)nc2n(C)c1=O` returned a Control in assay [1] of 9%.

As for `CCOC(=O)C(=O)Nc1c(C(=O)OCC)c(=O)n(CC)c2ncccc12`, the Control in assay [1] turned out to be 28%.

With `CCOC(=O)c1c(N)c2cccnc2n(CC)c1=O`, the Control was 18% in [1]; 58% in [3]; 35% in assay [4]; 17% in assay [5]; 55% in assay [6]; 62% in [8]. Also, the values for the Control in assay [9], in assay [7] and in [10] were 97%, 92% and 100%, respectively.

In assay [1], `C=CCn1c(=O)c(C(=O)OCC)c(O)c2ccc(C)nc21` came in with a Control of 73%.

The molecule `CCNC(=O)c1c(N)c2cccnc2n(CC)c1=O` returned a Control in assay [1] of 28%.

`CCNc1cc(C)c2c(N)c(C(=O)OCC)c(=O)n(CC)c2n1` registered a Control in assay [1] of 58%.

On to `CCOC(=O)c1c(N2CCCC2)c2ccc(C)nc2n(C)c1=O`, for which, in [1], the Control is on record as 32%.

`CCOC(=O)c1c(O)c2ccc(C)nc2n(CC)c1=O`: in assay [1], the Control is 53%.

The molecule `CCCCOC(=O)c1c(N)c2cccnc2n(CC)c1=O` had a Control in assay [1] of 26%.

With `CCOC(=O)c1c(NC(=O)C(F)(F)F)c2cccnc2n(CC)c1=O`, the Control in assay [1] is 22%.

As for `CCOC(=O)c1c(N2CC[N+](C)(C)CC2)c2ccc(C)nc2n(CC)c1=O.[Cl-]`, the Control in assay [1] came to 123%.

Regarding `CCOC(=O)c1c(N2CCN(C)CC2)c2cccnc2n(C)c1=O`, in assay [1], the Control worked out at 25%.

`CCOC(=O)c1c(N(CC)CC)c2ccc(C)nc2n(CC)c1=O`: the Control in assay [1] stood at 55%.

In assay [1], `CCOC(=O)c1c(N)c2ccc(C)nc2n(CC)c1=O` returned a Control of 33%.

On to `CCOC(=O)c1c(NCC(O)c2ccccc2)c2ccc(C)nc2n(CC)c1=O` (stereo unspecified), for which the Control in assay [1] worked out at 111%.

As for `CN/C(=N\CCSCc1nc[nH]c1C)NC#N` [CIMETIDINE], in assay [1], the “Inhibition of gastric acid secretion (% relative to control)” value worked out at 80%.
